Test system: turfgrass
Test: Example B4, conclusion in words
Assay type: in vivo
Settings: applied with Formula I
Experimental: The phytotoxicity to turfgrass of the compound of formula I in combination with various safeners was tested. The combinations were applied by post emergence spray application. Percentage phytotoxicity assessments were taken at various timepoints. The safeners tested in these trials were cloquintocet-mexyl, cyprosulfamide, a compound of formula 2.3, and isoxadifen-ethyl.

Structure (SMILES)	safener effectiveness, in words
COc1ccccc1C(=O)NS(=O)(=O)c1ccc(C(=O)NC2CC2)cc1 [cyprosulfamide]	particular effective safeners
CNC(=O)Nc1ccc(S(=O)(=O)NC(=O)c2ccccc2OC)cc1 [Formula 2.3]	particular effective safeners

— US20100184596A1, “METHOD FOR THE CONTROL OF WEEDS IN TURF” (SYNGENTA CROP PROTECTION, INC., priority 2007, published 2010)
